Non-standard residues stand in square brackets, D forms with d. No end group written: not given here. Hyp = O=C(O)[C@@H]1C[C@@H](O)CN1
Experiments:
HDF = test: Cell adhesion assay on coated 96-well plate, HDF; type: cell-based, Human; conditions: 37° C., 5% CO2, 60 min
Procedure: (§1) D-MEM High Glucose, D-MEM Low Glucose and 0.5% trypsin/EDTA were purchased from Wako Pure Chemical Industries, Ltd. (Osaka); FBS, penicillin. streptomycin (100×) were purchased from Invitrogen (Thermo Fisher Scientific corporation). Human mammary gland cancer (MDA-MB-231) was purchased from ATCC; Human skin fibroblasts (HDF) were purchased from Cell Applications. MDA-MB-231 was cultured using DMEM High Glucose (10% FBS, 100 Units/ml penicillin, 100 μg/ml streptomycin), and then maintained; and HDF was cultured using DMEM Low Glucose (10% FBS, 100 Units/ml penicillin, 100 μg/ml streptomycin), and then maintained. When used in cell adhesion assay and Western blotting, the cells were treated with 0.05% trypsin/EDTA, and then collected in a 15 ml tube to be subjected to centrifugal treatment at 1,200 rpm for four minutes. After the removal of the supernatant, the cells were suspended with an incubation medium by which the cells were incubated at 37° C. for 20 to 30 min and then recovered. Such cell suspension was used for cell adhesion assay and Western blotting.
(§2) Type I collagen (KOKEN CO., LTD, Tokyo) and BSA (Jackson Immuno Research Laboratories Inc., USA), in an aqueous solution as 30 μg/ml, were added to a 96-well plate (Nunc MicroWell 96-Well Microplates) by an amount of 50 μl/well, followed by drying the sample for two nights. Collagen-like peptides having no Cys residue were prepared as aqueous solutions of 1 to 3 mg/ml, and then heated at 95° C. for 5 min, followed by storing them at 4° C. overnight to form the triple-helical structure. Then, they were diluted to 30 μg/ml, and then added to a 96-well plate in an amount of 50 μl/well followed by drying them for two nights. Collagen-like peptides having Cys residues were dissolved in a degassed 0.05% (v/v) TFA aqueous solution, followed by preparing to a concentration of 300 μg/ml, and then heating the sample at 80° C. for 5 min. […] Further, a mineral oil was layered on the peptide solution, and such peptide solution was then oxidized at room temperature until thiol could no longer be detected by Ellman's test. […]

MDA-MB-231 = test: Cell adhesion assay on coated 96-well plate, MDA-MB-231; type: cell-based, Human; conditions: coated 96-well plate
Procedure: as §1, §2

[1] = Hydrogel formation judged by holding of a stainless ball; type: physicochemical; conditions: 1% (w/v) peptide, 10% DMSO, room temperature, up to three days
Procedure: Degassed water was used to prepare a peptide solution having a concentration of 1.11% (w/v) or 1.66% (w/v), and the solution was then put into a PCR tube. After heating this solution at 80° C. for 5 min using a polymerase chain reaction (PCR) machine (TaKaRa PCR Thermal Cycler, TAKARA BIO INC.), the solution was then left to stand at 4° C. overnight. By adding DMSO and water to this solution, there was prepared a peptide solution having a concentration of 10% DMSO, 0.1 to 1.5% (w/v). The PCR tube was then filled with a mineral oil in a way such that the mineral oil covered the liquid surface, followed by allowing the solution to stand at room temperature for a given period of time to achieve a gel. Then, gel formation was determined by looking at whether a stainless ball could be held by the gel.

[2] = Remaining thiol group (Ellman's reagent) in oxidative polymerization reaction; type: physicochemical; conditions: SH amount at 0 hour being 100%; 10% DMSO, peptide 1% (w/v); 74 hours
Procedure: Degassed water was used to prepare a peptide solution having a concentration of 1.11% (w/v), and the solution was then put into a PCR tube. After heating this solution at 80° C. for 5 min, it was then left to sand still at 4° C. overnight. By adding DMSO to this solution, there was prepared a peptide solution having a final concentration of 10% DMSO, peptide 1% (w/v). The PCR tube was then filled with a mineral oil in a way such that the mineral oil covered the surface of the solution. In every measurement, the mineral oil was eliminated from the peptide solution to prepare a peptide solution for oxidation monitoring. Ellman's reagent was prepared in a way such that 9 mg/ml of DTNB was present in 50 mM of a phosphate buffer solution (pH 8.4). 33 mM phosphate buffer solution (pH 8.4) and Ellman's reagent 1.5 mg/ml were left to stand for […], then a light absorbance was then measured after a solution with a final concentration of peptide 0.167 mg/ml. Recorded were changes in absorbance with time, with a moment when DMSO was added being a starting point (0 hour). Since the Ellman's reagent generates 5-mercapto-2-nitrobenzoate (λ max=412 nm, ε=1.55×10^4) depending on the amount of thiol groups (referred to as “SH groups” hereunder) in the peptide, measured was a absorbance at 412 nm. After the measurement, optical path length was compensated by measuring absorbance at 997 nm and 900 nm.

[3] = CD spectrum measurement of triple-helical structure and its thermal stability; type: physicochemical; conditions: 1 mg/ml in 0.05% TFA/H2O; measured at 4° C., 37° C. and 80° C.
Procedure: The structure of the peptide was confirmed by CD spectrum (circular dichroism spectrometer J-820, JASCO Corporation). A peptide powder was dissolved in a degassed 0.05% TFA/H2O to prepare a solution of 1 mg/ml. After heating at 80° C. for 5 min, the solution was left to stand at 4° C. overnight to cause refolding as a measurement sample. CD spectrum was measured under the conditions of: temperature 4° C., 37° C., 80° C.; cell length 0.05 cm; sensitivity standard (100 mdeg); measurement wavelength 250 to 190 nm; data collection interval 0.2 nm; scanning speed 50 nm/min; response 0.5 sec; band width 1 nm; cumulated number 4. A signal obtained (θobs) was expressed as a residue average molar ellipticity (θmrw). θmrw was calculated by the following formula.
A thermal stability of the triple-helical structure was observed by monitoring θmrw, 225 associated with a change in temperature. The measurement conditions were: 4 to 75° C. or 4 to 90° C.; cell length 0.05 cm; measurement wavelength 225 nm; data collection interval 0.5° C.; temperature gradient 18° C./h; sensitivity standard (100 mdeg); response 2 sec; band width 1 nm. It was determined that the triple-helical structure completely turned into a random coil structure in a region where the signal was linearly diminishing.

Substance	cell adhesion of HDF (HDF)	cell adhesion of MDA-MB-231 (MDA-MB-231)	other results
Ac-G(POG)4FOGERG(POG)5-NH2 (GPPGPPGPPGPPGFPGERGPPGPPGPPGPPGPPG; HELM PEPTIDE1{[ac].G.P.[Hyp].G.P.[Hyp].G.P.[Hyp].G.P.[Hyp].G.F.[Hyp].G.E.R.G.P.[Hyp].G.P.[Hyp].G.P.[Hyp].G.P.[Hyp].G.P.[Hyp].G.[am]}$$$$V2.0; SMILES CC(=O)NCC(=O)N1CCC[C@H]1C(=O)N1C[C@H](O)C[C@H]1C(=O)NCC(=O)N1CCC[C@H]1C(=O)N1C[C@H](O)C[C@H]1C(=O)NCC(=O)N1CCC[C@H]1C(=O)N1C[C@H](O)C[C@H]1C(=O)NCC(=O)N1CCC[C@H]1C(=O)N1C[C@H](O)C[C@H]1C(=O)NCC(=O)N[C@@H](Cc1ccccc1)C(=O)N1C[C@H](O)C[C@H]1C(=O)NCC(=O)N[C@@H](CCC(=O)O)C(=O)N[C@@H](CCCNC(=N)N)C(=O)NCC(=O)N1CCC[C@H]1C(=O)N1C[C@H](O)C[C@H]1C(=O)NCC(=O)N1CCC[C@H]1C(=O)N1C[C@H](O)C[C@H]1C(=O)NCC(=O)N1CCC[C@H]1C(=O)N1C[C@H](O)C[C@H]1C(=O)NCC(=O)N1CCC[C@H]1C(=O)N1C[C@H](O)C[C@H]1C(=O)NCC(=O)N1CCC[C@H]1C(=O)N1C[C@H](O)C[C@H]1C(=O)NCC(N)=O) [Soluble GFOGER]	cellular adhesion was not observed	cell adhesion was not observed	
G(POG)4PRGQOGVMGFOG(POG)4-NH2 [Soluble GVMGFO]	cellular adhesion was not observed		
G(POG)7IKGHRGFSGLOG(POG)6-NH2 [Soluble KGHRGF]	cellular adhesion was not observed		
YCCGPPOGGOPOGPPOGGOPOGRPOGPPOGGOPOGCCY (YCCGPP[Hyp]GG[Hyp]P[Hyp]GPP[Hyp]GG[Hyp]P[Hyp]GRP[Hyp]GPP[Hyp]GG[Hyp]P[Hyp]GCCY; not fully specified; cysteine pairing not given here) [YCC2-Scr]			gel-forming capability [1]: did not turn into a gel; ratio of SH amount [2]: approximately 0%; formation of triple-helical structure (CD spectrum, positive Cotton effect at about 225 nm) [3]: did not form the triple-helical structure
gelatin		Significant cell adhesion was observed	
